Experimental data from patent US20260250270A1, “Compound Used as Kinase Inhibitor and Use Thereof” (TYK MEDICINES, INC., priority 2022, published 2026).

Tests used:
[1] = system: EGFR exon 20ins; settings: advanced non-small cell lung cancer; cited from earlier work
[2] = system: NCI-H1975; test: Cell proliferation inhibition (CellTiter-Glo) on cell line NCI-H1975; format: cell-based; settings: Homo sapiens
Procedure: (§1) The cell lines NCI-H1975 and PC9 selected for the experiments were provided by Sino-American Guanke Biotechnology (Beijing) Co. and were validated prior to use in this study.
(§2) A 10× stock of the compound to be tested was prepared for use, with 9 concentrations in 4-fold gradient dilution, diluted from 10 μM.
(§3) The logarithmic growth phase cell suspension was inoculated into a 96-well culture plate with 90 μL volume per well (2000 cells/well). 10 μL of 10× Compound to be tested was added to the plate according to the plate spreading diagram, and then mixed well. The plate was incubated in a 5% CO2 incubator at 37° C. The proliferation inhibitory activity of the compound was determined by the CellTiter-Glo method. Cell proliferation inhibition rate (Inhibition Rate) data were plotted using GraphPad Prism 8.0 software for cell viability curves and IC50 values were calculated.

[3] = target: Ba/F3-HER2-A775-G776 ins YVMA (Homo sapiens, UniProt P04626, DUP772-775, cells depend on it); test: Cell proliferation inhibition (CellTiter-Glo), HER2 exon 20 insertion engineered cells; format: cell-based; settings: 72 h, CellTiter-Glo; read-out: IC50, Ba/F3-HER2-A775-G776ins YVMA
Procedure: (§4) The selected engineering cells Ba/F3-FL-EGFR-V769-D770 ins ASV, Ba/F3-FL-EGFR-D770-N771 ins SVD, Ba/F3-FL-EGFR-H773-V774 ins NPH, Ba/F3-FL-EGFR-A763-Y764 ins FQEA, Ba/F3-HER2-A775-G776 ins YVMA were provided by Hefei PreceDo Biomedical Technology Co., LTD and were validated prior to use in this study.
(§5) A 20× stock of the compound to be tested was prepared for use, with 9 concentrations in 3-fold gradient dilution, diluted from 1 μM.
(§6) The logarithmic growth phase cell suspension was inoculated into 96-well white cell culture plates with 95 μL volume per well (2000 cells/well). 5 μL of 20× Compound to be tested was added to the plate containing 95 μL of cell suspension according to the plate spreading diagram, and then mixed well. The plate was incubated in a 5% CO2 incubator at 37° C. for 72 h. The proliferation inhibition activity of the compounds was determined by the CellTiter-Glo method, and the fluorescence value per well, RLU, was obtained from the SpectraMax Paradigm reading. Inhibition Rate data were processed using the following formula: Inhibition Rate (Inh %)=100−(RLU compound−RLU blank)/(RLU control−RLU blank)*100%. The cell viability corresponding to different concentrations of compounds was calculated in EXCEL, and then GraphPad Prism software was used to plot the cell viability curve and calculate the IC50 value.

[4] = system: PC9; test: Cell proliferation inhibition (CellTiter-Glo) on cell line PC9; format: cell-based; settings: Homo sapiens, PC-9
Procedure: as §1, §2, §3

[5] = target: Ba/F3-FL-EGFR-A763-Y764 ins FQEA (Homo sapiens, UniProt P00533, INS763FQEA, cells depend on it); test: Cell proliferation inhibition (CellTiter-Glo), EGFR exon 20 insertion engineered cells; format: cell-based; settings: 72 h, read-out: IC50, Ba/F3-FL-EGFR A763-Y764ins FQEA
Procedure: as §4, §5, §6

[6] = target: Ba/F3-FL-EGFR-H773-V774 ins NPH (Homo sapiens, UniProt P00533, DUP771-773, cells depend on it); test: as above; format: cell-based; settings: 72 h, read-out: IC50, Ba/F3-FL-EGFR H773-V774ins NPH
Procedure: as §4, §5, §6

[7] = target: Ba/F3-FL-EGFR-D770-N771 ins SVD (Homo sapiens, UniProt P00533, DUP768-770, cells depend on it); test: as above; format: cell-based; settings: 72 h, read-out: IC50, Ba/F3-FL-EGFR D770-N771ins SVD
Procedure: as §4, §5, §6

[8] = target: Ba/F3-FL-EGFR-V769-D770 ins ASV (Homo sapiens, UniProt P00533, DUP767-769, cells depend on it); test: as above; format: cell-based; settings: 72 h, read-out: IC50, Ba/F3-FL-EGFR V769-D770ins ASV
Procedure: as §4, §5, §6

[9] = system: Lung cancer LU0387PDX model; test: Pharmacodynamic study on lung cancer LU0387PDX model; format: in vivo, mice; settings: LU0387 model, 30 mg/kg, P.O, QD * 13 days
From the text: Lung cancer LU0387PDX model is a commonly used xenograft tumor model from Crown Bioscience, the experimental situation of this model is described as follows: after euthanasia of tumor-bearing mice, the tumor blocks were dissected out in aseptic condition, the blocks were cleaned to remove blood stains and connective tissues and necrotic parts, and the tumors were cut into small pieces of 2*2*2 mm^3, and inoculated with an adapter needle in sterilized experimental mice subcutaneously on the right dorsal side. Tumor growth was regularly observed, and when the tumors grew to an average volume of 100~200 mm^3, mice were randomly grouped according to tumor size and body weight for drug administration. Before the start of drug administration, all animals were weighed and the tumor volume was measured with vernier calipers. Mice were randomly grouped according to tumor volume to ensure that tumor volumes were similar between groups. Three mice in each group were administered orally once daily, and the inoculation site was observed after administration. Tumor volume and mouse body weight were measured twice a week. The experimental design and results were shown in Table 9, wherein P.O referred to administered orally; QD: once a day; TGI (Tumor volume inhibition rate)=(1-Tumor weight of the treatment group/Tumor weight of the control group)*100%.

[10] = system: exon 20 insertion mutations in EGFR and HER2; settings: reported clinical trial results; cited from earlier work

Sequence of Ba/F3-FL-EGFR-H773-V774 ins NPH (P00533 with tags, fused parts or gaps DUP771-773): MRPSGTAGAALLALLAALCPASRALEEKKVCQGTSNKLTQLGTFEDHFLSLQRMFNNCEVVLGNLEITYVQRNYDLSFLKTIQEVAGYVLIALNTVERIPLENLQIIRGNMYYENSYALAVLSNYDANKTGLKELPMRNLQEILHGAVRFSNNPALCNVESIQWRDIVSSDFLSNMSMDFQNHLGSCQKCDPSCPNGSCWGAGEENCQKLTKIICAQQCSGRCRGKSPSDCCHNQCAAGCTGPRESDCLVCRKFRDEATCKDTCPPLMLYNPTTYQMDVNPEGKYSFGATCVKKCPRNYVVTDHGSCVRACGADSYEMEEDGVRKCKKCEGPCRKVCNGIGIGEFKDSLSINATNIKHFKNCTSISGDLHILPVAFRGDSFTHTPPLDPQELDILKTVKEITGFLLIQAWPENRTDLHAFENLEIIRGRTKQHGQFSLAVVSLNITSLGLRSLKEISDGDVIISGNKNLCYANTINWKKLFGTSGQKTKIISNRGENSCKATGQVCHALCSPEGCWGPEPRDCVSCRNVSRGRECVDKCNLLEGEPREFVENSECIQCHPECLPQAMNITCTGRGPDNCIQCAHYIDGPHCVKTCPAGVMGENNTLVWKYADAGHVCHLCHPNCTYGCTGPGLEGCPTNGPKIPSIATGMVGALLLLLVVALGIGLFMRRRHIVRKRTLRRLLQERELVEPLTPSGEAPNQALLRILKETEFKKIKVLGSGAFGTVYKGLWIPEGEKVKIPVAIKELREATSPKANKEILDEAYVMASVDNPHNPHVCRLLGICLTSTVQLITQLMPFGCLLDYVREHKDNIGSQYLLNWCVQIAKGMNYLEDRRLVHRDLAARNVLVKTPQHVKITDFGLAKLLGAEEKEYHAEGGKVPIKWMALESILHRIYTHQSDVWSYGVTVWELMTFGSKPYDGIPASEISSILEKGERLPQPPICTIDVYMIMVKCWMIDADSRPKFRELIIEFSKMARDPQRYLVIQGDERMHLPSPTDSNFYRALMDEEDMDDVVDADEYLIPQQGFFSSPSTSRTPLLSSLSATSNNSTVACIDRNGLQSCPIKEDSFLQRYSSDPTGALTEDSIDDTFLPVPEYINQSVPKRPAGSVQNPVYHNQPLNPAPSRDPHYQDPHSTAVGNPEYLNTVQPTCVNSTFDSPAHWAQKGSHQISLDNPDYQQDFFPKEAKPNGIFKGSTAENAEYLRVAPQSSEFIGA
Sequence of Ba/F3-FL-EGFR-D770-N771 ins SVD (P00533 with tags, fused parts or gaps DUP768-770): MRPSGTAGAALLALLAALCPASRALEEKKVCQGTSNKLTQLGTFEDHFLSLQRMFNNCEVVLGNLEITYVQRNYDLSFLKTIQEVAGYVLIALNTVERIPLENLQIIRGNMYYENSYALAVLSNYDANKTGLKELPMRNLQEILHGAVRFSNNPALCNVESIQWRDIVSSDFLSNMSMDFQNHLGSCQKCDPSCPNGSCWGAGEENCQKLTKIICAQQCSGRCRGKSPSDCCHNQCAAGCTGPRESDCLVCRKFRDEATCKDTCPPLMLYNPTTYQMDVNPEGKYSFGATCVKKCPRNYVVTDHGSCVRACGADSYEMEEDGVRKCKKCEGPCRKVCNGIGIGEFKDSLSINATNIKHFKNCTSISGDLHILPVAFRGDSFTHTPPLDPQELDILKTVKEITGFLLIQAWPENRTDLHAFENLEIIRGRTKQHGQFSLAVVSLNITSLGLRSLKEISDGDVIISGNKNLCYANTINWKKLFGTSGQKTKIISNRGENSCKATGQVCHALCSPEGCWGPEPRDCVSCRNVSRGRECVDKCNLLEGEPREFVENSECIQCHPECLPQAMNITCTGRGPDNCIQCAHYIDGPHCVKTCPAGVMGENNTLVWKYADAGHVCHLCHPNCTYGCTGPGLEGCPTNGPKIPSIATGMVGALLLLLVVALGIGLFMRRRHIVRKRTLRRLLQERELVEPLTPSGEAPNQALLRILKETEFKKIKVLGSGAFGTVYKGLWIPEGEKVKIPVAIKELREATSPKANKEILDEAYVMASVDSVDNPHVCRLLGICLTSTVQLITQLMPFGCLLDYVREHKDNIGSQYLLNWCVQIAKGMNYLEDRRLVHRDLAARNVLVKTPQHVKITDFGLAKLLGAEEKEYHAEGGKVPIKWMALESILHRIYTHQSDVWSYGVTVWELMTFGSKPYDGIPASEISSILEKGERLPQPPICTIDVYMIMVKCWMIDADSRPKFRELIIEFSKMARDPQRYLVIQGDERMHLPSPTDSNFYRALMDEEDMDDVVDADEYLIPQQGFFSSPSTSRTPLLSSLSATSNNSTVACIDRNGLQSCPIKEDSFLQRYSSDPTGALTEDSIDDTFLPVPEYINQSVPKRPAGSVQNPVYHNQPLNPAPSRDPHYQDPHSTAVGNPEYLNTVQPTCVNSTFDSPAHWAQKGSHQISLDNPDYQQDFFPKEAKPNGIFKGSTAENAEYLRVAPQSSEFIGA
Sequence of Ba/F3-FL-EGFR-V769-D770 ins ASV (P00533 with tags, fused parts or gaps DUP767-769): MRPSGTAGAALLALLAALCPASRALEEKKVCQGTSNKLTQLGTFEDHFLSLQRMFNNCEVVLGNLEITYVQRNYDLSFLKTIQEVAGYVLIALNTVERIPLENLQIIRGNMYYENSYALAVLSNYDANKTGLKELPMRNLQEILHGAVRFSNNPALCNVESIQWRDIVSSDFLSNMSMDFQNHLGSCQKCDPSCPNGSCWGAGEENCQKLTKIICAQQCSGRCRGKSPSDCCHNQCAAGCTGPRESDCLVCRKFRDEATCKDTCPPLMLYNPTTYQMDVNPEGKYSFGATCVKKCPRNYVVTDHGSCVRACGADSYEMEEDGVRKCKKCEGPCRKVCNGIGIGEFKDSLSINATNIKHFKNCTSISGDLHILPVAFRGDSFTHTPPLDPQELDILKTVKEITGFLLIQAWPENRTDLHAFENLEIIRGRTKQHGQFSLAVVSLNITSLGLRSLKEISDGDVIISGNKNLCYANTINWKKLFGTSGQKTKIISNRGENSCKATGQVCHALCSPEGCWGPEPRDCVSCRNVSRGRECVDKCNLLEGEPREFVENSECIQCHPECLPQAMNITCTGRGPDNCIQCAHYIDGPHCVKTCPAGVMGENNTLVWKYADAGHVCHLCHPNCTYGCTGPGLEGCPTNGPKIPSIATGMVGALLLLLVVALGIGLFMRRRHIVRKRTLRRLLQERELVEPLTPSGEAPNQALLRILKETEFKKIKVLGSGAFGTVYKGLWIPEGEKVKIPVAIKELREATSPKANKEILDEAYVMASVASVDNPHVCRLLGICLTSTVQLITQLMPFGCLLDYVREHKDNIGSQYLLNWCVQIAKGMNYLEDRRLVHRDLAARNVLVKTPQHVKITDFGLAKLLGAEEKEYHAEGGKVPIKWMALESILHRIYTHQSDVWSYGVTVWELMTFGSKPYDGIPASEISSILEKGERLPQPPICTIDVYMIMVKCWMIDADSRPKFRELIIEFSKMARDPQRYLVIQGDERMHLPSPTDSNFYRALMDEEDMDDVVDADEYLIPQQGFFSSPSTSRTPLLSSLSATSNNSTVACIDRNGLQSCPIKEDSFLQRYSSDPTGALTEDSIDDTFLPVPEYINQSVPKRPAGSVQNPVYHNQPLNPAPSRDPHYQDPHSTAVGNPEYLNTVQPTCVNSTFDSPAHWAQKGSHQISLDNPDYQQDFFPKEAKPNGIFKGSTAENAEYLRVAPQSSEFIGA
Sequence of Ba/F3-FL-EGFR-A763-Y764 ins FQEA (P00533 with tags, fused parts or gaps INS763FQEA): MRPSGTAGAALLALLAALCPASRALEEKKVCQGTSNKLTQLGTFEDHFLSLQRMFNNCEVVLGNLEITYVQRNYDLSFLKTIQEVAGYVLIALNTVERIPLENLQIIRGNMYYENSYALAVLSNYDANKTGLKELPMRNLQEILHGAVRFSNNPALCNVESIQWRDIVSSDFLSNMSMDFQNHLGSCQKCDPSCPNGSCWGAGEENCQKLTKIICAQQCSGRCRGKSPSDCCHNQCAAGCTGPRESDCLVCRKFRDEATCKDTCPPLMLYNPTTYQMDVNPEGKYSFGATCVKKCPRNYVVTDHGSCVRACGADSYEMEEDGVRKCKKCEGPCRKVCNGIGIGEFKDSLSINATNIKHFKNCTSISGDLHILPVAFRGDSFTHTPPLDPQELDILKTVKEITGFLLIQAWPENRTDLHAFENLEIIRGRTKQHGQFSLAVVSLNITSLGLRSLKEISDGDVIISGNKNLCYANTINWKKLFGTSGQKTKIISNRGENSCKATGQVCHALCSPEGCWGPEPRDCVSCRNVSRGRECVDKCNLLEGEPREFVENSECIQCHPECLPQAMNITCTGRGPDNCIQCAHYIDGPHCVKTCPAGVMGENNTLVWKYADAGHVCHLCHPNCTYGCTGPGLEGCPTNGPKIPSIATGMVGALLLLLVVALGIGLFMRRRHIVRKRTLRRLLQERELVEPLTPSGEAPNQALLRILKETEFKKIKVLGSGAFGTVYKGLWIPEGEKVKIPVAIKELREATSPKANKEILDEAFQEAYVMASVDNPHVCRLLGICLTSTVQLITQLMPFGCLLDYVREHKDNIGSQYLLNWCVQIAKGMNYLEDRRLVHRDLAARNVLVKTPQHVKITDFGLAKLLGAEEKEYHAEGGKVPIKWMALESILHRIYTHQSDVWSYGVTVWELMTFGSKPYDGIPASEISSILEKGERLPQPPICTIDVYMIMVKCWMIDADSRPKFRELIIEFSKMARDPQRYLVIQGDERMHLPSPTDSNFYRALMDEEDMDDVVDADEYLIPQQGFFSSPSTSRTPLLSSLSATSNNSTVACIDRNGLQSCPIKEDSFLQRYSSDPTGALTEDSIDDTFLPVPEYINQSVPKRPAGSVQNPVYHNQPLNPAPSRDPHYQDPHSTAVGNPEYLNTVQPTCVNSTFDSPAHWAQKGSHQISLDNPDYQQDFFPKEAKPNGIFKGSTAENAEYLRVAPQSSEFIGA

IC50 [2]	GI50 [3]	IC50 [4]	GI50 [5]	GI50 [6]	GI50 [7]	GI50 [8]	SMILES	objective remission rate [1]	TGI (%) [9]	objective remission rate [10]
≤ 30 nM	30 to 100 nM	30 to 100 nM	≤ 30 nM	30 to 100 nM	30 to 100 nM	≤ 30 nM	C=CC(=O)Nc1cc(Nc2nccc(Nc3cc(Cl)c(F)cc3C(C)(C)O)n2)c(OC)cc1N1CC[C@@H](N(C)C)C1 [DZD9008, reference compound]	40%	32.55%	–
≤ 30 nM	≤ 30 nM	≤ 30 nM	≤ 30 nM	≤ 30 nM	≤ 30 nM	≤ 30 nM	C=CC(=O)Nc1cc(Nc2ncc(C(=O)OC(C)C)c(-c3cn(C)c4ccccc34)n2)c(OC)cc1N(C)CCN(C)C [TAK-788, reference compound]	–	68.03%	43%
